Experimental findings from ChEMBL document CHEMBL1201862, “PubChem BioAssay data set” (2004) are described below.

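Dose response: 5 concentrations. Exposure: 48 h. Format: 96-well plates. Endpoint: linear interpolation; highest concentration if not reached. Here, GI50 denotes the concentration required for 50% inhibition of growth.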 Activity calls are given as the source filed them. No stated cut-off is given here; in the data, active = GI50 up to about 1.1 µM and inactive = higher.

What all share (assay): NCI anticancer screen, dose series, 48 h
Assay [1] concerns A498.
The subject of assay [2] is ACHN.
In assay [3] the test system is HL-60.
Assay [4] relates to SK-MEL-2.
The test system of assay [5] is HOP-62.
For assay [6], the system named is U-251.
The subject of assay [7] is UACC-62.
Assay [8] concerns SF-539.
Assay [9] concerns NCI-H522.
Assay [10] relates to UO-31.
In assay [11] the test system is UACC-257.
Assay [12] relates to OVCAR-5.
The test system of assay [13] is HT-29.
For assay [14], the system named is SK-MEL-5.
Assay [15] deals with SN12C.
Assay [16] concerns RPMI-8226.
For assay [17], the system named is MDA-MB-435.
In assay [18] the test system is NCI/ADR-RES.
Assay [19] concerns HCT-15.
Assay [20] concerns TK-10.

In the case of `CCN(CC)CC(O)CNc1ccc(NCC2CO2)c2c1C(=O)c1ccccc1C2=O` (centres undefined), the GI50 is 3.51 µM (inactive) in [1]; 0.144 µM (active) in assay [2]; 0.0236 µM (active) in assay [3]; 0.226 µM (active) in assay [4]; 1.15 µM (inactive) in assay [5]; 1.24 µM (inactive) in assay [6]. The GI50 in assay [7] is 0.56 µM (active); in assay [8], 1.32 µM (inactive); in [9], 0.647 µM (active); in [10] it was 0.594 µM (active); in [11] it was 1.48 µM (inactive); in assay [12], 2.3 µM (inactive). The GI50 is 0.553 µM (active) in assay [13]; 0.447 µM (active) in assay [14]; 0.139 µM (active) in [15]; 0.614 µM (active) in [16]; 0.211 µM (active) in assay [17]; 0.0993 µM (active) in assay [18]. Besides, the GI50 in assay [19] is 0.638 µM; in assay [20], 2.29 µM (inactive).

Take `CN(C)Cc1cc(C(F)(F)F)ccc1C(O)(c1ccccc1)c1ccccc1`: the GI50 in [1] is 11.7 µM (inactive); in assay [2], 16.3 µM (inactive); in [3], 7.76 µM (inactive); in assay [4], 18.3 µM (inactive); in assay [5], 16.3 µM (inactive); in assay [6], 11.8 µM (inactive). Also, the GI50 in assay [7] is 13.2 µM (inactive); in [8], 17 µM (inactive); in [9] it was 15.6 µM (inactive); in assay [10], 12.1 µM (inactive); in [11] it was 11.6 µM (inactive); in assay [12], 14.4 µM (inactive). Moreover, the GI50 in assay [13] is 5.05 µM (inactive); in assay [14] it was 14.1 µM (inactive); in assay [15], 15.4 µM (inactive); in [16], 5.51 µM (inactive); in assay [17], 18.8 µM (inactive); in assay [18], 15.2 µM (inactive). Also, the GI50 was 14.7 µM in [19] and 17.2 µM (inactive) in [20].

Consider `CC[N+](C)(CC)CCN1C(=O)c2ccccc2S1(=O)=O`, for which the GI50 in [1], in assay [2], in [3], in assay [4], in assay [5] and in assay [6] was > 100 µM (inactive) each time. Besides, the GI50 in assay [7], in assay [8], in assay [9], in [10], in assay [11] and in assay [12] was > 100 µM (inactive) in each case. Also, the GI50 in assay [13], in [14], in [15], in [16], in [17] and in assay [18] was > 100 µM (inactive) throughout. Besides, the GI50 was more than 100 µM in [19] and > 100 µM (inactive) in [20].

With `CC(=O)c1csc2c1C(=O)c1scc(C(C)=O)c1C2=O`, the GI50 in [1] was 1.54 µM (inactive); in assay [2] it was 1.68 µM (inactive); in assay [3] it was 0.112 µM (active); in assay [4], 1.89 µM (inactive); in assay [5], 1.8 µM (inactive); in assay [6], 1.43 µM (inactive). In addition, the GI50 in assay [7] is 1.98 µM (inactive); in [8] it was 1.82 µM (inactive); in assay [9], 0.52 µM (active); in assay [10] it was 2 µM (inactive); in [11], 0.942 µM (active); in assay [12] it was 1.98 µM (inactive). Also, the GI50 in assay [13] was 2.28 µM (inactive); in assay [14], 1.44 µM (inactive); in assay [15], 1.7 µM (inactive); in [16], 0.944 µM (active); in [17], 0.188 µM (active); in assay [18], 1.61 µM (inactive). Further, the GI50 in assay [19] was 1.62 µM; in [20], 2.54 µM (inactive).

As to `O=C1N[C@H]2[C@H](O)[C@H](O)[C@@H](O)[C@H](O)[C@@H]2c2cc3c(c(O)c21)OCO3` [PANCRATISTATIN], the GI50 is 0.0583 µM (active) in [1]; 0.673 µM (active) in assay [2]; 0.0364 µM (active) in assay [3]; 0.0336 µM (active) in assay [4]; 0.0449 µM (active) in [5]; 0.0339 µM (active) in [6]. Also, the GI50 in assay [7] was 0.0436 µM (active); in assay [8], 0.037 µM (active); in [9], 0.0326 µM (active); in [10], 0.0875 µM (active); in assay [11], 0.0429 µM (active); in assay [12], 0.144 µM (active). Further, the GI50 in assay [13] is 0.0439 µM (active); in assay [14] it was 0.0272 µM (active); in assay [15], 0.0365 µM (active); in assay [16], 0.0778 µM (active); in assay [17], 0.0372 µM (active); in assay [18] it was 0.0622 µM (active). The GI50 is 0.045 µM in [19] and 0.65 µM (active) in assay [20].

With `O=C1CCc2c(sc3ncnc(Nc4cccc(Br)c4)c23)C1`, the GI50 in assay [1] was 14 µM (inactive); in assay [2] it was 1.69 µM (inactive); in [3] it was 4.32 µM (inactive); in assay [4], 6.89 µM (inactive); in assay [5] it was 5.53 µM (inactive); in [6], 2.81 µM (inactive). Besides, the GI50 in assay [7] was 3.72 µM (inactive); in assay [8], 3.63 µM (inactive); in assay [9] it was 2.1 µM (inactive); in assay [10], 1.99 µM (inactive); in assay [11] it was 3.55 µM (inactive); in assay [12], 6.98 µM (inactive). Besides, the GI50 in [13] was 12.1 µM (inactive); in assay [14], 1.88 µM (inactive); in assay [15], 3.4 µM (inactive); in assay [16], 2.58 µM (inactive); in [17], 1.94 µM (inactive); in [18], 2.94 µM (inactive). Besides, the GI50 in assay [19] is 3.24 µM; in assay [20], 4.06 µM (inactive).

For the compound `Cc1ccc([S+](c2ccccc2)c2cc(C)ccc2C)cc1.O=C(OC(C(=O)[O-])C(OC(=O)c1ccccc1)C(=O)O)c1ccccc1` (centres undefined), the GI50 was 39.2 µM (inactive) in [1]; 22.9 µM (inactive) in assay [2]; 3.13 µM (inactive) in assay [3]; 3.51 µM (inactive) in [4]; 21.5 µM (inactive) in assay [5]; 5.37 µM (inactive) in assay [6]. Besides, the GI50 in assay [7] is 12.2 µM (inactive); in assay [8] it was 29 µM (inactive); in assay [9], 3.55 µM (inactive); in [10], 38 µM (inactive); in [11], 1.96 µM (inactive); in assay [12], 23.2 µM (inactive). The GI50 in [13] was 7.69 µM (inactive); in assay [14], 3.85 µM (inactive); in assay [15] it was 17.7 µM (inactive); in assay [16], 2 µM (inactive); in [17] it was 5.3 µM (inactive); in assay [18], > 100 µM (inactive). Also, the GI50 was more than 100 µM in assay [19] and 18.2 µM (inactive) in [20].

Take `COc1ccc(-c2cc(=O)c3c(OC)c(OC)c(OC)c(OC)c3o2)cc1OC` [NOBILETIN]: the GI50 is 25.2 µM (inactive) in [1]; 37.3 µM (inactive) in assay [2]; 17.3 µM (inactive) in [3]; 49.4 µM (inactive) in [4]; 44.7 µM (inactive) in assay [5]; 71 µM (inactive) in assay [6]. Besides, the GI50 in assay [7] was 25.6 µM (inactive); in assay [8], > 100 µM (inactive); in assay [9], 28.6 µM (inactive); in assay [10] it was 24.7 µM (inactive); in [11], 33.5 µM (inactive); in assay [12] it was > 100 µM (inactive). The GI50 was 32.1 µM (inactive) in [13]; 18.6 µM (inactive) in assay [14]; 41.5 µM (inactive) in [15]; 39.8 µM (inactive) in assay [16]; 45.1 µM (inactive) in [17]; 20.3 µM (inactive) in [18]. Also, the GI50 in assay [19] is 26.5 µM; in assay [20], 50.1 µM (inactive).

Take `CCO[C@@]1(COCc2ccccc2)OC(=O)C[C@@H]1N1C(=O)OC[C@@H]1c1ccccc1`: the GI50 in [1] was > 100 µM (inactive); in assay [2], > 100 µM (inactive); in assay [3], 42.8 µM (inactive); in assay [4] it was > 100 µM (inactive); in [5], 26.6 µM (inactive); in assay [6] it was > 100 µM (inactive). Further, the GI50 in assay [7] is > 100 µM (inactive); in assay [8] it was > 100 µM (inactive); in assay [9], 84.3 µM (inactive); in [10], > 100 µM (inactive); in [11], > 100 µM (inactive); in assay [12] it was > 100 µM (inactive). The GI50 in [13], in assay [14], in assay [15], in [16], in assay [17] and in [18] was > 100 µM (inactive) throughout. The GI50 was more than 100 µM in assay [19] and > 100 µM (inactive) in assay [20].

For the compound `CC(=O)N(C(C)=O)n1c(Cc2ccc(Cl)cc2)nn(C(C)=O)c1=O`, the GI50 in assay [1], in assay [2], in assay [3], in assay [4], in assay [5] and in assay [6] was > 100 µM (inactive) each time. Further, the GI50 in assay [7], in assay [8], in assay [9], in assay [10], in assay [12] and in [13] was > 100 µM (inactive) throughout. In addition, the GI50 in [14] is > 100 µM (inactive); in assay [15], > 100 µM (inactive); in assay [16], > 100 µM (inactive); in assay [17], > 100 µM (inactive); in assay [18], > 100 µM (inactive); in assay [19] it was more than 100 µM. Moreover, the GI50 in [20] was > 100 µM (inactive).
